Values belong to the compound of their own block, whether it stands above or below them. Active and inactive are the calls of the source. The calls are words filed in the database; no cut-off is given here.
What was measured:
[1] = target: Phosphatidylinositol 4,5-bisphosphate 3-kinase catalytic subunit alpha isoform (Homo sapiens, UniProt P42336)
in vivo [2] = conditions: rat, plasma, iv, 1 mg/kg
Hepatocyte = assay: Metabolic stability in cryopreserved human hepatocytes assessed as N-(2-chlorophenyl)-N-methyl-8-(1H-pyrazol-4-yl)-4,5-dihydrobenzo[b]thieno[2,3-d]oxepine-2-carboxamide formation; format: ADME, cell-based
in vivo [3] = conditions: mouse, plasma, iv, 1 mg/kg
[4] = target: Serine/threonine-protein kinase mTOR (Homo sapiens, UniProt P42345); assay: Inhibition of mTOR
PC-3 = assay: Antiproliferative activity against human PC3 cells; format: functional, cell-based
MCF7 = assay: Antiproliferative activity against human MCF7 cells; format: functional, cell-based
[5] = Plasma protein binding in human; format: ADME, cell-free; conditions: read-out: PPB (converted)
[6] = Plasma protein binding in rat; format: ADME, cell-free; conditions: read-out: PPB (converted)
[7] = Plasma protein binding in mouse; format: ADME, cell-free; conditions: read-out: PPB (converted)
[8] = Plasma protein binding in dog; format: ADME, cell-free, Canis lupus familiaris; conditions: read-out: PPB (converted)
[9] = Plasma protein binding in cynomolgus monkey; format: ADME, cell-free, Macaca fascicularis; conditions: read-out: PPB
[10] = Plasma clearance in rat at 100 mg/kg; format: ADME, organism-based; parameters: dose 100 mg/kg
[11] = Oral bioavailability in rat at 100 mg/kg; format: ADME, organism-based; conditions: in vivo
[12] = AUC in rat at 100 mg/kg; format: ADME, organism-based; parameters: dose 100 mg/kg; conditions: plasma
[13] = Plasma clearance in mouse at 100 mg/kg; format: ADME, organism-based; parameters: dose 100 mg/kg
[14] = Oral bioavailability in mouse at 100 mg/kg; format: ADME, organism-based; conditions: in vivo
[15] = AUC in mouse at 100 mg/kg; format: ADME, organism-based; parameters: dose 100 mg/kg; conditions: plasma
[16] = Plasma clearance in cynomolgus monkey; format: ADME, organism-based, Macaca fascicularis
Mus musculus [17] = assay: Inhibition of PI3K pathway in nude mouse xenografted with HER2 expressing MCF7 assessed as reduction in phosphorylated AKT levels at 50 mg/kg, po administered as single dose after 6 hrs relative to control; format: functional, organism-based; parameters: dose 50 mg/kg
Mus musculus [18] = assay: Inhibition of PI3K pathway in nude mouse xenografted with HER2 expressing MCF7 assessed as reduction in phosphorylated PRAS40 levels at 50 mg/kg, po administered as single dose after 6 hrs relative to control; format: functional, organism-based; parameters: dose 50 mg/kg
Mus musculus [19] = assay: Inhibition of PI3K pathway in nude mouse xenografted with HER2 expressing MCF7 assessed as reduction in phosphorylated S6RP levels at 50 mg/kg, po administered as single dose after 6 hrs relative to control; format: functional, organism-based; parameters: dose 50 mg/kg
[20] = Plasma clearance in dog at 2 mg/kg; format: ADME, organism-based, Canis lupus familiaris; parameters: dose 2 mg/kg
[21] = Oral bioavailability in dog at 2 mg/kg; format: ADME, organism-based, Canis lupus familiaris; conditions: in vivo
[22] = AUC in dog at 2 mg/kg; format: ADME, organism-based, Canis lupus familiaris; parameters: dose 2 mg/kg; conditions: plasma
[23] = target: DNA-dependent protein kinase catalytic subunit (Homo sapiens, UniProt P78527); assay: Inhibition of DNA-PK
Chain of DNA-dependent protein kinase catalytic subunit (P78527 whole entry): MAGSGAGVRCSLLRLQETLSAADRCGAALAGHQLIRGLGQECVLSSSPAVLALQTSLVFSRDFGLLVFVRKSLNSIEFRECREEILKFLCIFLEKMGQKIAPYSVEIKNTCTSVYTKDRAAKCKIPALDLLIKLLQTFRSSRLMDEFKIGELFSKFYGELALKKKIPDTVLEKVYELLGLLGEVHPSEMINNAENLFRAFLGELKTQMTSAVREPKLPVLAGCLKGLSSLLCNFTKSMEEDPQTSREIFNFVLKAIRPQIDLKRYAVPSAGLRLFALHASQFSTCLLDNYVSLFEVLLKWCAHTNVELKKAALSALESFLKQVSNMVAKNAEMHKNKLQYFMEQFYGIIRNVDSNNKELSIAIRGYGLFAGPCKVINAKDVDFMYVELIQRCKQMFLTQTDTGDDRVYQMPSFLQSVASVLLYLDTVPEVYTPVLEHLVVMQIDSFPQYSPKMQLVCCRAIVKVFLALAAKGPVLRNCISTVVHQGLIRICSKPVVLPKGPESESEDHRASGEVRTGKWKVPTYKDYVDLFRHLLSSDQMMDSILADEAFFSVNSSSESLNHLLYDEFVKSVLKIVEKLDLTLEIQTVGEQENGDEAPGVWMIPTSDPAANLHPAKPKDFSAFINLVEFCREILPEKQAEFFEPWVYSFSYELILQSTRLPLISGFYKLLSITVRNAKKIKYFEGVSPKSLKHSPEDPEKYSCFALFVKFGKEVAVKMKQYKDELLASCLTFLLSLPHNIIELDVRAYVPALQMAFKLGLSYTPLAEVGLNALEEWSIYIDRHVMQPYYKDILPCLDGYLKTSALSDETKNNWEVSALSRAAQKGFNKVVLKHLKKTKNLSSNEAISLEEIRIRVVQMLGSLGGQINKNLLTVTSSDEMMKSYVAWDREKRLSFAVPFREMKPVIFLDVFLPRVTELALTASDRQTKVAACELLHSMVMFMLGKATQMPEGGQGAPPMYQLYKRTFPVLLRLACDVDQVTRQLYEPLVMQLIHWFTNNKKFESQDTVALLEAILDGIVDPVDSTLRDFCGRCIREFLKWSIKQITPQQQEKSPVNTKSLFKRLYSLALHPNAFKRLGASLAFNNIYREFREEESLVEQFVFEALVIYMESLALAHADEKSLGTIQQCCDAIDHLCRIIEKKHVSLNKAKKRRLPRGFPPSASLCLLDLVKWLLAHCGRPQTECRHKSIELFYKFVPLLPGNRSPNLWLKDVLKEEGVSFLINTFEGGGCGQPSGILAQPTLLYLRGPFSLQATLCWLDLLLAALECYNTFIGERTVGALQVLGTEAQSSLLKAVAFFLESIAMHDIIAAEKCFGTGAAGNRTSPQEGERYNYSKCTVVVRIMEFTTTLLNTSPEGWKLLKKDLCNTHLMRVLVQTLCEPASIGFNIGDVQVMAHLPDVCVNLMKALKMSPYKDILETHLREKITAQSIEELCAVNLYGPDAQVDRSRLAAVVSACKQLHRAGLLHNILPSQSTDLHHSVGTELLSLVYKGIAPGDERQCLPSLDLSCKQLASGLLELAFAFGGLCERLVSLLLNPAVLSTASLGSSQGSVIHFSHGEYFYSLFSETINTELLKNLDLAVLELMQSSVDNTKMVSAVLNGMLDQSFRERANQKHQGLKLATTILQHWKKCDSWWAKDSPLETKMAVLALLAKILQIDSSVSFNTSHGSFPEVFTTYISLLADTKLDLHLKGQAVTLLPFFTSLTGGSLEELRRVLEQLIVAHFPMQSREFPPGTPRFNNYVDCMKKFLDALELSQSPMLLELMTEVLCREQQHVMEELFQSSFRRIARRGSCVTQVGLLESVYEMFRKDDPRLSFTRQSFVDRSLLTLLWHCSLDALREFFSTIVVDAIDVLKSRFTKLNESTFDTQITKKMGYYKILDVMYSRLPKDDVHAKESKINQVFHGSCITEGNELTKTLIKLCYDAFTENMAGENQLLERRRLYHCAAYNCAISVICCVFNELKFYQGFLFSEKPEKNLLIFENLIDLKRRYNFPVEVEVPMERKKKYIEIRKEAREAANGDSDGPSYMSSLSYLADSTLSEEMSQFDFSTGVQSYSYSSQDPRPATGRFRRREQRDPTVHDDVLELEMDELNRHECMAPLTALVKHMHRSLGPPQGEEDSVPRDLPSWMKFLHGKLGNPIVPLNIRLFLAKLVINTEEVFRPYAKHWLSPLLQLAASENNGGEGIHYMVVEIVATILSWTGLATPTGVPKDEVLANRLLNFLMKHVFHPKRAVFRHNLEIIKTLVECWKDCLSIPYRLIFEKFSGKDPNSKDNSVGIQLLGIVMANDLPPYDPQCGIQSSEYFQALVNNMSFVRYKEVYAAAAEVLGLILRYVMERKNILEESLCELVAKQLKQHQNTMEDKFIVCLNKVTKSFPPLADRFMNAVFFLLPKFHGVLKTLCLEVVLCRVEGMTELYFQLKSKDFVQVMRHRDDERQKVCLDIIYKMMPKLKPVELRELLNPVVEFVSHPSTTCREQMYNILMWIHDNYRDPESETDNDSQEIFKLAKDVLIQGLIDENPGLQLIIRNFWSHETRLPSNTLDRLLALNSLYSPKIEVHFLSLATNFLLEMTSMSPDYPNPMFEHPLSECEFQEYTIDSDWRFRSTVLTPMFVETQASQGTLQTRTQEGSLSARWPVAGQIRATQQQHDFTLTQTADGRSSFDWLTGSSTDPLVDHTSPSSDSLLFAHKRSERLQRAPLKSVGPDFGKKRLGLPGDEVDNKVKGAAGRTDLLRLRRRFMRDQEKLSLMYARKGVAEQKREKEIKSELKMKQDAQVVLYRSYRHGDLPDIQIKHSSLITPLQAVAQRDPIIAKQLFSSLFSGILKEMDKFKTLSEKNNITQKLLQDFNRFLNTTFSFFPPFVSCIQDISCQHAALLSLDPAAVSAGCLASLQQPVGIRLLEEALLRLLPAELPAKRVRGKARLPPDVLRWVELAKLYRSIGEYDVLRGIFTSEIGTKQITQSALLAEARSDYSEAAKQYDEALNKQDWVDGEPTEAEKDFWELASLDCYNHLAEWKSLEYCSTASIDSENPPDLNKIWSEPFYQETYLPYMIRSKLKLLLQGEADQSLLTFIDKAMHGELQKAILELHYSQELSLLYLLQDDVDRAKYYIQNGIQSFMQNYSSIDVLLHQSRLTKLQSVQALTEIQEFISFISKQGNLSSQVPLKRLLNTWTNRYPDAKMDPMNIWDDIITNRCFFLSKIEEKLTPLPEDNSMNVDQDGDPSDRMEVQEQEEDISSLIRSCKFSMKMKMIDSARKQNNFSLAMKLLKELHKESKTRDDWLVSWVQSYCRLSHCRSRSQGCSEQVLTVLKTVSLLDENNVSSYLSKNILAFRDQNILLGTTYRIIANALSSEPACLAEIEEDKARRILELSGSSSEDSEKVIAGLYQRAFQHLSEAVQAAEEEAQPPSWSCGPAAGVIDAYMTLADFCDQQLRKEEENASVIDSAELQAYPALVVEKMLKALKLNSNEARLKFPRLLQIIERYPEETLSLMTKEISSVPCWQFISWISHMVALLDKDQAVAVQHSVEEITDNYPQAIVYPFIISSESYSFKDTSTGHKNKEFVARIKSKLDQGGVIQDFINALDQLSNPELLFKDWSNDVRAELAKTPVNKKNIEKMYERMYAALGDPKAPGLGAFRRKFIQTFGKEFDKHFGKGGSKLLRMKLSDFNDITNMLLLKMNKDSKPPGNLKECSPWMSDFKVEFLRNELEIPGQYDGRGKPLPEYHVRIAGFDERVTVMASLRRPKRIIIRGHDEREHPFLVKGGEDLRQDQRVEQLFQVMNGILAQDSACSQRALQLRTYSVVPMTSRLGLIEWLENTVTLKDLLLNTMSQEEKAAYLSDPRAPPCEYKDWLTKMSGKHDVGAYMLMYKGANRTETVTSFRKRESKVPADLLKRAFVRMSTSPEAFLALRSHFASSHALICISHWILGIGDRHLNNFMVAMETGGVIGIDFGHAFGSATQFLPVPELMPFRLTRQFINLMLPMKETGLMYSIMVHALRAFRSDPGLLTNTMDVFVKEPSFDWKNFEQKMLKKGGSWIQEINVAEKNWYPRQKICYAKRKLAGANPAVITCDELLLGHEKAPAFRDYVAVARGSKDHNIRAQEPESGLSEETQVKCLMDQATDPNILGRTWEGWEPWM

in vivo [24] = conditions: nude, mouse, plasma, po, 50 mg/kg
in vivo [25] = conditions: nude, mouse, plasma, po, 50 mg/kg; remark: listed apart in the source
in vivo [26] = conditions: nude, mouse, tumor, po, 50 mg/kg
in vivo [27] = conditions: nude, mouse, tumor, po, 50 mg/kg; remark: listed apart in the source

Chain of Phosphatidylinositol 4,5-bisphosphate 3-kinase catalytic subunit alpha isoform (P42336 whole entry, canonical isoform): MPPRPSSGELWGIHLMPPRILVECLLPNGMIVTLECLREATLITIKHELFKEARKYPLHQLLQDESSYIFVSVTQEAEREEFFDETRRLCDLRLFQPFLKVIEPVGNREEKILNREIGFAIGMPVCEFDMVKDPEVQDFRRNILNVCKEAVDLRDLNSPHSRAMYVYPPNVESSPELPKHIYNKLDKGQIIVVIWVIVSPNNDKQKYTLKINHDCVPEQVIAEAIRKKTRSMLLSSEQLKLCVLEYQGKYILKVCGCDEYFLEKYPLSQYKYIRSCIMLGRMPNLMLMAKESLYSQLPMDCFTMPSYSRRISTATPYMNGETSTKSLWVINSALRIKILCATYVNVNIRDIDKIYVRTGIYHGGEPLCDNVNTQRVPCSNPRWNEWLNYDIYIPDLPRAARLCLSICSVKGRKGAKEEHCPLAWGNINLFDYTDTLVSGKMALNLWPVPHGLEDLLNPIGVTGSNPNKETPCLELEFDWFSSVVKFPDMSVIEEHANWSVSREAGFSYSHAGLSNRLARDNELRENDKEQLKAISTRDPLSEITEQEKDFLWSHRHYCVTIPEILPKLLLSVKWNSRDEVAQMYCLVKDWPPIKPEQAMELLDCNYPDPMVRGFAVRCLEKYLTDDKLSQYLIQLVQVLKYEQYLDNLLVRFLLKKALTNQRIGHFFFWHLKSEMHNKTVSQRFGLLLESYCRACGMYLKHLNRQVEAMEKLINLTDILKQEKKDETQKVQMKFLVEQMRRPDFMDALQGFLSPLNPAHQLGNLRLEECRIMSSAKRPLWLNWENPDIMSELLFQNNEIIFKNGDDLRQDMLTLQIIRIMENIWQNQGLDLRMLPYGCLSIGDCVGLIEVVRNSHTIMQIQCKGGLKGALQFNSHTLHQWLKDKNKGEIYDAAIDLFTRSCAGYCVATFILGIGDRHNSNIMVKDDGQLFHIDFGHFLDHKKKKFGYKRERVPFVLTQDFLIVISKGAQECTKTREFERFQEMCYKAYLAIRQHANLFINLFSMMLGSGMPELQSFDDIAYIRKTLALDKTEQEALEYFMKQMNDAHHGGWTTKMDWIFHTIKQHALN

Compound: CN(C(=O)c1cc2c(s1)-c1ccccc1OC2)c1cccc(F)c1
- IC50 [1]: 1000 nM

Compound: CNC(=O)c1ccc2c(c1)OCCc1cc(C(=O)N(C)c3ccc(F)cc3Cl)sc1-2
- clearance (in vivo [2]): 153 mL/min/kg
- clearance (in vivo [3]): 182 mL/min/kg

Compound: CNC(=O)c1ccc2c(c1)OCCc1cc(C(=O)N(C)c3cc(C(=O)N(C)C)ccc3Cl)sc1-2
- clearance (in vivo [2]): 66 mL/min/kg
- clearance (in vivo [3]): 55 mL/min/kg

Compound: COc1ccccc1N(C)C(=O)c1cc2c(s1)-c1ccccc1OC2
- IC50 [1]: 673 nM

Compound: CNC(=O)c1ccc(N(C)C(=O)c2cc3c(s2)-c2ccc(C(=O)NC)cc2OCC3)c(Cl)c1
- Ki [1]: 2.5 nM
- clearance (in vivo [2]): 28 mL/min/kg
- clearance (in vivo [3]): 24 mL/min/kg

Compound: CNC(=O)c1ccc2c(c1)OCCc1cc(C(=O)N(C)c3ccc(C(=O)N(C)C)cc3Cl)sc1-2
- IC50 [4]: 530 nM
- EC50 (PC-3): 550 nM
- EC50 (MCF7): 256 nM
- fraction unbound [5]: 0.03
- fraction unbound [6]: 0.03
- fraction unbound [7]: 0.02
- fraction unbound [8]: 0.07
- fraction unbound [9]: 0.09
- clearance [10]: 36 mL/min/kg
- bioavailability [11]: 50%
- AUC [12]: 39 µM·h
- clearance [13]: 15 mL/min/kg
- bioavailability [14]: 28%
- AUC [15]: 330 µM·h
- clearance [16]: 10 mL/min/kg
- inhibition (Mus musculus [17]): Active
- inhibition (Mus musculus [18]): Active
- inhibition (Mus musculus [19]): Active
- clearance [20]: 5 mL/min/kg
- bioavailability [21]: 120%
- AUC [22]: 17 µM·h
- IC50 [23]: 6 nM
- clearance (in vivo [2]): 36 mL/min/kg
- clearance (in vivo [3]): 15 mL/min/kg
- concentration at 1 h (in vivo [24]): 7.38 µM
- concentration at 6 h (in vivo [25]): 11.1 µM
- concentration at 1 h (in vivo [26]): 1.08 µM
- concentration at 6 h (in vivo [27]): 2.24 µM

Compound: CC(C)CN(C)C(=O)c1cc2c(s1)-c1ccccc1OC2
- IC50 [1]: 17000 nM

Compound: CN(C(=O)c1cc2c(s1)-c1ccccc1OC2)c1ccccn1
- IC50 [1]: > 10000 nM

Compound: CN(C(=O)c1cc2c(s1)-c1ccccc1OC2)c1ccc(F)cc1
- IC50 [1]: 1000 nM

Compound: CC(C)N(C)C(=O)c1cc2c(s1)-c1ccccc1OC2
- IC50 [1]: 5200 nM

Compound: CN(C(=O)c1cc2c(s1)-c1ccc(-c3cn[nH]c3)cc1OCC2)c1ccncc1Cl
- Ki [1]: 65 nM

Compound: Cc1ccccc1N(C)C(=O)c1cc2c(s1)-c1ccccc1OC2
- IC50 [1]: 699 nM

Now from value to compound:

- Ki [1]: 1.2 nM
- clearance (in vivo [2]): 89 mL/min/kg
Compound: CN(C(=O)c1cc2c(s1)-c1ccc(C(N)=O)cc1OCC2)c1ccccc1Cl

- Stability (Hepatocyte): 5 µM
Compound: CNC(=O)c1ccc2c(c1)OCCc1cc(C(=O)N(C)c3ccccc3Cl)sc1-2

- Ki [1]: 473 nM
- clearance (in vivo [2]): 23 mL/min/kg
Compound: CN(C(=O)c1cc2c(s1)-c1ccccc1OCC2)c1ccncc1Cl

- Ki [1]: 1.5 nM
- clearance (in vivo [2]): 44 mL/min/kg
Compound: COC(=O)Nc1ccc2c(c1)OCCc1cc(C(=O)N(C)c3ccccc3Cl)sc1-2

- Ki [1]: 0.6 nM
Compound: CN(C(=O)c1cc2c(s1)-c1ccc(-c3cn[nH]c3)cc1OCC2)c1ccccc1Cl

- clearance (in vivo [2]): 60 mL/min/kg
Compound: CN(C(=O)c1cc2c(s1)-c1ccccc1OCC2)c1ccccc1Cl

- IC50 [1]: > 10000 nM
Compound: CN(C(=O)c1cc2c(s1)-c1ccccc1OCCC2)c1ccccc1Cl

- Ki [1]: 31 nM
Compound: CN(C(=O)c1cc2c(s1)-c1ccc(C(=O)N3CCOCC3)cc1OCC2)c1ccccc1Cl

Reference: ChEMBL document CHEMBL1795251, “Structure-based design of thienobenzoxepin inhibitors of PI3-kinase” (Bioorg Med Chem Lett, 2011)
